Experimental data: patent US20030017565A1, “COMPOSITION AND METHOD FOR TREATING A POROUS ARTICLE AND USE THEREOF” (priority 1996, published 2003)

How the values were obtained:
[1] = leaching of Japan cedar blocks after initial vacuum and pressure impregnation (Example 10); type: physicochemical; conditions: initial vacuum then 10 atm, enzyme added, 5% LSA; for Elution Rate (%) LSA: pH 8.1-8.8; for Elution Rate (%) Chemical Agent: pH 8.1-8.8, species as bracketed (Copper, Zinc, Nickel, H = hinokitiol), else the agent named
Description: A reaction mixture for treating wood containing 30 ppm of the freeze-dried product described in Example 1, 5% of commercially available lignosulfonic acid, and one or more various chemical agents was prepared, and Japan cedar wood blocks (3 cm×3 cm×2 cm, butt end: 3 cm×3 cm) were subjected to pressure reduction (initial vacuum) and impregnation treatment under pressure using the reaction mixture in the same manner as in Examples 3 and 4.
The pressure reduction and pressurization were performed by setting a vessel for impregnation operation as shown in FIG. 1 in a pressure reactor (5 liter in volume), conducting initial vacuum from 600 to 720 mmHg for 30 minutes using a vacuum pump, tilting the whole apparatus to allow the treatment liquid to flow toward the wood so that the wood blocks can be dipped in the treatment liquid, and then pressurized at 10 atm for 1 hour by flowing high pressure nitrogen gas in the reactor.
The wood blocks after the impregnation treatment were further subjected to drying/macromolecularization reaction and leaching treatment in the same manner as in Examples 3 and 4. The amounts of the chemical agents and lignosulfonic acid which were eluted were calculated and compared taking the amounts of them injected upon the impregnation treatment as 100%.

[2] = system: Coriolus versicolor FEPRI 1030; experiment: antifungal test on treated wood, weight loss; type: cell-based; conditions: leached wood blocks of Example 10, LSA added, enzyme added, pH of treating liquid 8.1-8.8, 26° C., 12 weeks
Description: (§1) After completion of the antifungal operation, the wood blocks were taken out of the incubator and hyphae on the surface thereof were removed sufficiently. After air dried for about 24 hours, the wood blocks were dried sufficiently using a drier and a desiccator in the same manner as described above and their weight was measured. Percent weight loss (%) was calculated by comparing the weight obtained with the weight before the antifungal operation.

[3] = system: Tyromyces palustris FEPRI 0507; experiment: antifungal test on treated wood, weight loss; type: cell-based; conditions: leached wood blocks of Example 10, LSA added, enzyme added, pH of treating liquid 8.1-8.8, 26° C., 12 weeks
Description: as §1

[4] = leaching of cypress blocks, peroxidase + alcohol oxidase (Example 7); type: physicochemical; conditions: 5 U/ml peroxidase + 5 U/ml alcohol oxidase + 1% methanol; for Elution Rate (%) LSA: pH 8.1-8.8; for Elution Rate (%) Chemical Agent: pH 8.1-8.8, species as bracketed (Copper, Zinc, Boron, H = hinokitiol), else the agent named
From the text: The peroxidase used was obtained from horse radish (Type II, Sigma) and the alcohol oxidase used was obtained from Candida boidini (Boehringer Mannheim Biochemica).

[5] = leaching of Japan cedar blocks treated with LSA and chemical agents (Example 4); type: physicochemical; conditions: 5% LSA; for Elution Rate (%) Chemical Agent: species measured as bracketed (Copper, Zinc, Nickel, Boron, H = hinokitiol), else the agent named
Description: For chemical agents having low solubilities, they were added to aqueous lignosulfonic acid solution after it was warmed to 60 to 90° C., and it was cooled at 25° C. after the chemical agents were suspended, dispersed, dissolved by Vortex-Mixer, […]
The amount of lignosulfonic acid which leached off was determined by measurement of the absorbance at 280 nm, and the amount of the chemical agent which leached off was determined by complex formation and spectrophotometry using PAN (1-(2-pyridylazo)-2-naphthol, Aldrich Chemical Company) or quinalizarin (Wako Pure Chemicals), separation, identification and determination, using HPLC or gas chromatography, or atomic absorption analysis were performed, followed by calculation of the amount of the chemical agents which was eluted. When the chemical agents had absorption at 280 nm, the concentration of lignosulfonic acid was calculated by measuring the absorbance at 280 nm of the chemical agents of which the concentration was measured by the above-described method and subtracting an influence by the chemical agent from the absorbance at 280 nm of the liquid which was eluted. The amounts of the chemical agents and lignosulfonic acid which were eluted were calculated and compared taking the amounts of them injected upon the impregnation treatment as 100%.

[6] = leaching of Japan cedar blocks, treating mixture with tung oil (Example 8); type: physicochemical; conditions: Example 1 enzyme, 5% LSA, 2,000 ppm tung oil
Description: (§2) The amounts of the chemical agents and lignosulfonic acid which were eluted were calculated and compared taking the amounts of them injected upon the impregnation treatment as 100%.

[7] = leaching of cypress blocks, bilirubin oxidase (Example 6); type: physicochemical; conditions: for Elution Rate (%) LSA: pH 8.1-8.8; for Elution Rate (%) Chemical Agent: pH 8.1-8.8, species as bracketed (Copper, Zinc, Nickel, Boron, H = hinokitiol), else the agent named
From the text: Taking the amounts of the lignosulfonic acid (LSA) and chemical agent as injected upon the impregnation treatment as 100%, respectively, the amounts of the substances which were eluted were compared.

[8] = leaching of cypress blocks, Myrothecium roridum enzyme (Example 5); type: physicochemical; conditions: 40 ppm Example 2 enzyme, 5% LSA; for Elution Rate (%) LSA: pH 8.2-8.8; for Elution Rate (%) Chemical Agent: pH 8.2-8.8, species as bracketed (Copper, H = hinokitiol), else the agent named
Description: as §2

[9] = system: house termite; experiment: termite preventing test on treated wood, weight reduction; type: in vivo; conditions: leached wood blocks of Example 10, LSA added, enzyme added, pH 8.1-8.5, about 40 cm from termite nest, 2 months
From the text: The wood blocks were placed on the soil at a distance of about 40 cm around the nest of house termite. After they were left to stand for 2 months, termite preventive properties were observed. […] Then, the dry weight thus obtained was compared with the weight of the wood blocks before the placement on the soil, thus calculating a weight reduction rate.

[10] = copper retention rate in Japan cedar sapwood after three leachings (Example 23); type: physicochemical; conditions: pH of treating liquid 4.6, three leachings of 8 hours
Description: Aqueous solutions having the compositions listed in table 15 below were prepared and adjusted to pH 8.5 with sodium hydroxide. Those compositions which contained no ethylenediamine (EDA) nor ethanolamine (MEA) were tested at pH 4.5 since copper is deposited as copper hydroxide in alkaline regions. […] The wood blocks were taken out of the solutions and air-dried at 28 ° C. for 72 hours and then dried in a forced air circulation drier at 60° C. for 48 hours. After the drying, the wood blocks were submerged in 10 fold volume of deionized water at 25° C. with stirring at 300 rpm for 8 hours for leaching. This operation was repeated three times. The rate of copper fixed to wood was calculated from the sum of the amounts of eluted copper ions by the three elution operations to the total amount of copper ions in the solution impregnated in the wood.

[11] = leaching of Japan cedar blocks after reduced pressure impregnation (Example 3); type: physicochemical; conditions: no LSA, enzyme not added, pH 4.1
Description: The pH was adjusted with sodium hydroxide or sulfuric acid. The reduced pressure impregnation operation was performed by a handy method, i.e., by applying a reduced pressure of 650 to 700 mmHg for 1 hour after dipping the Japan cedar blocks in the treatment liquid and then keeping the blocks at atmospheric pressure for 30 minutes as they were dipped in the treatment liquid. By measuring the weights of each block before and after the impregnation treatment, it was confirmed that as a result of the pressure reduction treatment operation, a sufficient amount of the treating liquid (10 to 14 g) was injected in the blocks. Further, the wood blocks after the impregnation treatment were placed in an incubator at 28° C., for 5 days to effect drying and macromolecularization reaction.

[12] = in the absence of enzyme (comparison), pH 8.1-8.8
[13] = in the presence of enzyme, Japan cedar, pH of treating agent 8.1-8.8
[14] = in the presence of enzyme, pH 8.1-8.8

Compound | Elution Rate (%) LSA [1] [%] | Elution Rate (%) Chemical Agent [1] [%] | Weight Loss (%) Coriolus versicolor [2] [%] | Weight Loss (%) Tyromyces palustris [3] [%] | Elution Rate (%) LSA [4] [%] | Elution Rate (%) Chemical Agent [4] [%] | Elution Rate (%) LSA [5, 12] [%] | Elution Rate (%) Chemical Agent [5, 12] [%] | Elution Rate (%) LSA [5, 13] [%] | Elution Rate (%) Chemical Agent [5, 14] [%] | Elution Rate (%) LSA ([6]; pH 8.1-8.5) [%] | Elution Rate (%) Chemical Agent ([6]; pH 8.1-8.5, species as bracketed (Copper, Zinc, Nickel, H = hinokitiol), else the agent named) [%] | Elution Rate (%) LSA [7] [%] | Elution Rate (%) Chemical Agent [7] [%] | Elution Rate (%) LSA [8] [%] | Elution Rate (%) Chemical Agent [8] [%] | Weight Reduction Rate (%) [9] [%] | Copper Retention Rate (%) ([10]; enzyme added (20 ppm)) | Copper Retention Rate (%) ([10]; enzyme not added) | Elution Rate (%) Copper [11] [%]
CC(C)c1cccc(=O)c(O)c1 [1000 ppm Hinokitiol, Hinokitiol] | 0.4 | 2.3 | 1.5 | 2.2 | 4.5 | 6.2 | 24.2 | 14.4 | 0.6 | 3.1 | 1.1 | 0.5 | 1.7 | 5.4 | 2.2 | 7.2 | 2.2 | – | – | –
O=C(OC[C@H]1O[C@@H](OC(=O)c2cc(O)c(O)c(OC(=O)c3cc(O)c(O)c(O)c3)c2)[C@H](OC(=O)c2cc(O)c(O)c(OC(=O)c3cc(O)c(O)c(O)c3)c2)[C@@H](OC(=O)c2cc(O)c(O)c(OC(=O)c3cc(O)c(O)c(O)c3)c2)[C@@H]1OC(=O)c1cc(O)c(O)c(OC(=O)c2cc(O)c(O)c(O)c2)c1)c1cc(O)c(O)c(OC(=O)c2cc(O)c(O)c(O)c2)c1 [500 ppm Tannic acid, Tannic acid] | 2.3 | 3.1 | 10.8 | 12.9 | 9.2 | 10.3 | 24.2 | 21.0 | 3.8 | 4.0 | – | – | 6.6 | 8.3 | 6.8 | 8.7 | – | – | – | –
(+)-Catechin · H2O [1000 ppm (+)-Catechin · H2O] | 2.1 | 2.0 | 8.3 | 9.9 | 5.3 | 8.7 | 23.4 | 11.3 | 2.7 | 2.8 | – | – | 4.4 | 6.3 | 5.2 | 6.6 | – | – | – | –
O=S(=O)([O-])[O-].[Cu+2] [0.04 M CuSO4, copper (II) sulfate] | – | – | – | – | – | – | – | – | – | – | – | – | – | – | – | – | – | 19.3 | 21.8 | 58.5
